Measured values reported in the Kinase Knowledgebase extract (Sharma et al. 2016).

These compounds were tested against EGFR (UniProt P00533).
Chain of EGFR (P00533 whole entry, looked up): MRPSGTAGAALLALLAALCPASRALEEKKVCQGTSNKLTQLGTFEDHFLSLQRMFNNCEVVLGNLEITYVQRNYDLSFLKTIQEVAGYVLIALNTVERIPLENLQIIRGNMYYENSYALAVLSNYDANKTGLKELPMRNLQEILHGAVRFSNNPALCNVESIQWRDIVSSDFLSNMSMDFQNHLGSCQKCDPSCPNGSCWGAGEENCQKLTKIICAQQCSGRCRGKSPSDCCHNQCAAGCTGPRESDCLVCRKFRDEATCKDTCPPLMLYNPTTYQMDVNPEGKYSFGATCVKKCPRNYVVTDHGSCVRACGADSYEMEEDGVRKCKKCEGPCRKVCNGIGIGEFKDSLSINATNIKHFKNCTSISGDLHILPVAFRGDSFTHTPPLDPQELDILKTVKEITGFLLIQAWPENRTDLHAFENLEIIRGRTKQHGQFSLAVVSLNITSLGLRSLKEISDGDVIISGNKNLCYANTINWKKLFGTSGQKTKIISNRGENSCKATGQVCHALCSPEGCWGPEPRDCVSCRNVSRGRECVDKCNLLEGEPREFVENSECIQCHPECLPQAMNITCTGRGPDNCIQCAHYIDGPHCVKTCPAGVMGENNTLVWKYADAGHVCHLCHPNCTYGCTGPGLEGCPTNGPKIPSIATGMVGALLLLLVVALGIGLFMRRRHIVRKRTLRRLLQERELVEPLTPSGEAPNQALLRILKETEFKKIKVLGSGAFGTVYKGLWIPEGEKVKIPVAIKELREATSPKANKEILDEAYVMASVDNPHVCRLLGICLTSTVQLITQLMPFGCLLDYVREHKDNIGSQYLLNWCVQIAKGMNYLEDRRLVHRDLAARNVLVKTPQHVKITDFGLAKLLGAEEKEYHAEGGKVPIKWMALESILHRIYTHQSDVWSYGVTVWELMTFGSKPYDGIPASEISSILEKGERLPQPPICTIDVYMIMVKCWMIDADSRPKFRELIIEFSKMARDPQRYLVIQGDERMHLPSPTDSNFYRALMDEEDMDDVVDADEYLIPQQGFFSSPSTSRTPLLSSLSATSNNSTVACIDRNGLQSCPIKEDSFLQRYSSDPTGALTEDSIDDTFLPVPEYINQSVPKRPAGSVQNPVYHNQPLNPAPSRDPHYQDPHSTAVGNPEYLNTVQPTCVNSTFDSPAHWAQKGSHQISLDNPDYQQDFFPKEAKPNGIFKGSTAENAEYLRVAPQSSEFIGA

IC50, 1 to 5000 nM:
Cc1c(NC(=O)OC[C@H]2COCCN2)cn2ncnc(Nc3ccc4c(cnn4Cc4cccc(F)c4)c3)c12
Cc1c(NC(=O)O[C@H]2CC[C@H](N)CC2)cn2ncnc(Nc3ccc4c(cnn4Cc4cccc(F)c4)c3)c12
CCc1c(NC(=O)O[C@H]2CC[C@H](N)CC2)cn2ncnc(Nc3ccc4c(cnn4Cc4ccccc4)c3)c12
CCc1c(NC(=O)OC[C@@H]2COCCN2)cn2ncnc(Nc3ccc4c(cnn4Cc4cnccn4)c3)c12
CCc1c(NC(=O)OC[C@@H]2COCCN2)cn2ncnc(Nc3ccc4c(cnn4Cc4ncco4)c3)c12
CCc1c(NC(=O)OC[C@@H]2CCN(C)C2)cn2ncnc(Nc3ccc4c(cnn4Cc4ccccc4)c3)c12
CCc1c(NC(=O)OC[C@H]2CNCCO2)cn2ncnc(Nc3ccc4c(cnn4Cc4ccccc4)c3)c12
CCc1c(NC(=O)OC[C@@H]2CNCCO2)cn2ncnc(Nc3ccc4c(cnn4Cc4ccccc4)c3)c12
CCc1c(NC(=O)OC[C@H]2COCCN2)cn2ncnc(Nc3ccc4c(cnn4Cc4ccccc4)c3)c12
Cc1c(NC(=O)O[C@H]2CC[C@@](C)(N)CC2)cn2ncnc(Nc3ccc4c(cnn4Cc4cccc(F)c4)c3)c12
CCc1c(NC(=O)O[C@@H]2CCN[C@@H](CO)C2)cn2ncnc(Nc3ccc4c(cnn4Cc4ccccc4)c3)c12
Cc1c(NC(=O)O[C@H]2CCN[C@H](CO)C2)cn2ncnc(Nc3ccc4c(cnn4Cc4cccc(F)c4)c3)c12
CCc1c(NC(=O)OC[C@H]2CCCN2)cn2ncnc(Nc3ccc4c(cnn4Cc4ccccc4)c3)c12
CCc1c(NC(=O)OC[C@@H]2COCCN2)cn2ncnc(Nc3ccc4c(cnn4Cc4ccsc4)c3)c12
Cc1c(NC(=O)OC[C@H](C)N)cn2ncnc(Nc3ccc4c(cnn4Cc4cccc(F)c4)c3)c12
Cc1c(NC(=O)OCC2COCCN2)cn2ncnc(Nc3ccc4c(cnn4Cc4cccc(F)c4)c3)c12 (stereo not given)
CCc1c(NC(=O)OC[C@H]2C[C@H](O)CCN2)cn2ncnc(Nc3ccc4c(cnn4Cc4ccccc4)c3)c12
CCc1c(NC(=O)OC[C@H]2CCNC2)cn2ncnc(Nc3ccc4c(cnn4Cc4ccccc4)c3)c12
CCc1c(NC(=O)OC[C@@H]2COCCN2)cn2ncnc(Nc3ccc4c(cnn4Cc4cccc(F)c4)c3)c12
CCc1c(NC(=O)OCCCN2CC[C@H](O)C2)cn2ncnc(Nc3ccc4c(cnn4Cc4ccccc4)c3)c12
CCc1c(NC(=O)OC2CCN[C@H](CO)C2)cn2ncnc(Nc3ccc4c(cnn4Cc4ccccc4)c3)c12 (stereo not given in full)
Cc1c(NC(=O)O[C@H]2CC[C@@H](N)CC2)cn2ncnc(Nc3ccc4c(cnn4Cc4cccc(F)c4)c3)c12
Cc1c(NC(=O)O[C@@H]2CCN[C@@H](CO)C2)cn2ncnc(Nc3ccc4c(cnn4Cc4cccc(F)c4)c3)c12
CCc1c(NC(=O)O[C@H]2CC[C@@H](N)CC2)cn2ncnc(Nc3ccc4c(cnn4Cc4ccccc4)c3)c12
CCc1c(NC(=O)OC[C@@H]2CCCN2)cn2ncnc(Nc3ccc4c(cnn4Cc4ccccc4)c3)c12
CCc1c(NC(=O)OC[C@@H]2COCCN2)cn2ncnc(Nc3ccc4c(cnn4Cc4nccs4)c3)c12
CCc1c(NC(=O)OCCCN2CCC[C@H](O)C2)cn2ncnc(Nc3ccc4c(cnn4Cc4ccccc4)c3)c12
CCc1c(NC(=O)O[C@H]2CC[C@@](C)(N)CC2)cn2ncnc(Nc3ccc4c(cnn4Cc4ccccc4)c3)c12
Cc1c(NC(=O)O[C@H]2CCCNC2)cn2ncnc(Nc3ccc4c(cnn4Cc4cccc(F)c4)c3)c12
CCc1c(NC(=O)OC[C@@H]2COCCN2)cn2ncnc(Nc3ccc4c(cnn4Cc4cccnc4)c3)c12
CCc1c(NC(=O)O[C@@H]2CCCNC2)cn2ncnc(Nc3ccc4c(cnn4Cc4ccccc4)c3)c12
Cc1c(NC(=O)O[C@@H]2CCCNC2)cn2ncnc(Nc3ccc4c(cnn4Cc4cccc(F)c4)c3)c12
CCc1c(NC(=O)OC[C@@H]2COCCN2)cn2ncnc(Nc3ccc4c(cnn4Cc4ccccn4)c3)c12
Cc1c(NC(=O)OC[C@@H]2COCCN2C(=O)OC(C)(C)C)cn2ncnc(Nc3ccc4c(cnn4Cc4cccc(F)c4)c3)c12
CCc1c(NC(=O)OC[C@@H]2COCCN2)cn2ncnc(Nc3ccc4c(cnn4Cc4cscn4)c3)c12
Cc1c(NC(=O)OC[C@@H](C)N)cn2ncnc(Nc3ccc4c(cnn4Cc4cccc(F)c4)c3)c12
Cc1c(NC(=O)OC[C@@H]2COCCN2)cn2ncnc(Nc3ccc4c(cnn4Cc4cccc(F)c4)c3)c12
CCc1c(NC(=O)OCCCN2CC[C@@H](O)C2)cn2ncnc(Nc3ccc4c(cnn4Cc4ccccc4)c3)c12
CCc1c(NC(=O)O[C@H]2CC[C@@H](CN)CC2)cn2ncnc(Nc3ccc4c(cnn4Cc4ccccc4)c3)c12
CCc1c(NC(=O)OC[C@@H]2CCCN2C)cn2ncnc(Nc3ccc4c(cnn4Cc4ccccc4)c3)c12
CCc1c(NC(=O)O[C@H]2CC[C@H](CN)CC2)cn2ncnc(Nc3ccc4c(cnn4Cc4ccccc4)c3)c12
CCc1c(NC(=O)OC[C@@H]2CCNC2)cn2ncnc(Nc3ccc4c(cnn4Cc4ccccc4)c3)c12
CCc1c(NC(=O)O[C@H]2CCCNC2)cn2ncnc(Nc3ccc4c(cnn4Cc4ccccc4)c3)c12
CCc1c(NC(=O)OC[C@@H]2COCCN2)cn2ncnc(Nc3ccc4c(cnn4Cc4ccccc4)c3)c12
CCc1c(NC(=O)OC[C@@H]2COCCN2)cn2ncnc(Nc3ccc4c(cnn4Cc4cccs4)c3)c12
